Assay results: US20210260010A1, “COMPOSITIONS AND METHODS FOR THE REDUCTION OR TREATMENT OF INFLAMMATION” (AXCELLA HEALTH INC., priority 2018, published 2021)

Key:
IL-6 = IL-6 cytokine secretion by TNFα-stimulated primary human hepatic stellate cells (ELISA); format: cell-based; conditions: for IL-6 cytokine secretion, per-cell normalized, fold change from plasma amino acid background: primary human hepatic stellate cells, two donors, TNFα 3 ng/mL, 12 hours
Experimental: Primary human hepatic stellate cells were obtained from Samsara Sciences and grown in Complete HSC Medium to […] confluence in T75 or T150 flasks below passage 10 were seeded into 96-well plates and incubated for 6 hours at 37° C., 5% CO2 in a humidified incubator. After 6 hours, plates were removed from the incubator washed with DPBS and pretreated (±single amino acid dropout, ±supplemental amino acid dose; see experiment for medium composition) overnight, ˜14-15 hours. After overnight pretreatment, the medium was removed from the cells, and the same pretreatment medium, now supplemented with 3 ng/mL TNFα was applied. Plates were incubated for 12 hours at 37° C., 5% CO2. After 12 hour stimulus with TNFα, supernatant was removed and frozen at −80° C. in two separate aliquots. Plates were washed and incubated with CCK-8 viability reagent (Dojindo) for 1 hour. Viability was measured on the Synergy plate reader. Immediately, the medium was removed and the plates were fixed for immunofluorescence staining.
Human CCL2/MCP1 and Human IL-6 were measured by ELISA (Human […] DuoSet ELISA, R&D Systems; Human IL-6 DuoSet ELISA, R&D Systems) at ⅕ and 1/20 dilution in 1× Reagent Diluent (Reagent Ancillary Kit 2, R&D Systems). Data were normalized to the specific per well cell density determined by Hoechst stained nuclei count.
Tables 39-42 show per-cell normalized IL-6 cytokine secretion in primary human hepatic stellate cells from two donors as a fold change from the plasma amino acid background. Statistical significance calculated by one-way ANOVA with Dunnett's multiple comparison test within each treatment group.

MCP1/CCL2 = MCP1/CCL2 secretion by primary human hepatocytes exposed to free fatty acids and TNF-α (ELISA); format: cell-based; conditions: for MCP1 expression relative to Control- Donor 1, Mean: donor 1 hepatocytes; for MCP1 expression relative to Control- Donor 1, Mean / MCP1 expression relative to Control- Donor 2, Mean: FFA + TNF-α, baseline subtracted; for MCP1 expression relative to Control- Donor 2, Mean: donor 2 hepatocytes; for MCP1/CCL2 secretion (baseline subtracted): primary human hepatocytes from two healthy donors, FFA 250 uM + TNF-α 1 ng/ml
Experimental: Hepatocyte lipotoxicity appears to be a central driver of hepatic cellular injury via oxidative stress and endoplasmic reticulum (ER) stress. The ability of amino acids to influence steatosis (lipid accumulation) and inflammation in hepatocytes was assessed using human primary hepatocytes (Lonza, TRL).
Primary hepatocytes lot nos. from two healthy human donors were seeded on day 0 at density of 6e04 cells in 96 well optical microplates (Thermofisher) in hepatocyte plating media (William's E medium (Gibco) supplemented with 10% heat-inactivated FBS (Atlanta Bio), 2 mM Glutamax (Gibco) and 0.2% Primocin (InVivoGen) and incubated for 6 hours at 37° C., 5% CO2. After 6 hours, cells were washed twice and incubated overnight at 37° C., 5% CO2 with Hepatocytes defined medium (Corning) supplemented with 2 mM Glutamax (Gibco) and 1× Penicillin/Streptomycin. On day 1, cells were washed twice and incubated for 24 h in the hepatocyte culture media in the same conditions described above.
On day 2, cells were washed twice with DPBS 1× (Gibco) and maintained in amino acid-free WEM (US Biologicals) containing a defined custom amino acid concentration based on the mean physiological concentrations in blood. The values are published in the Human Metabolome Database (Wishart D S, Tzur D, Knox C, et al., HMDB: the Human Metabolome Database. Nucleic Acids Res. January 2007; 35(Database issue):D521-6. 17202168; which is hereby incorporated by reference in its entirety). This custom media is supplemented with 11 mM Glucose, 0.272 mM Sodium Pyruvate, and a dose curve of defined amino acid compositions (i.e., vehicle, LIVRQ+N-acetylcysteine, LIVRQ, RQ+N-acetylcysteine, N-acetylcysteine alone, LIV, or individually with L-Leucine, L-Isoleucine, L-Valine, L-Arginine, L-Glutamine, and L-Cysteine) at various ranges of concentrations. Cells were maintained in this defined media for 24 hours at 37° C., 5% CO2.
After pre-treatment, cells were exposed to free fatty acids (FFA) at 250 uM with a ratio of 2:1 (Oleate:Palmitate) supplemented with TNF-α (Thermofisher) at 1 ng/ml or vehicle. Cells were incubated with the FFAs mixture and the different amino acids combinations for 24 hours at 37° C., 5% CO2. After 24 hours incubation, media was removed for cytokine analysis and replaced by fresh media containing the same stimulus conditions and amino acid concentrations. Cells were incubated for an additional 48 hours for a total of 72 hours of FFA and TNFα stimulation.
Human CCL2 (MCP-1) was measured by ELISA (Human […] DuoSet ELISA, R&D Systems) at ⅕ or 1/10 dilution in 1× Reagent Diluent (Reagent Ancillary Kit 2, R&D Systems). Data were normalized to the specific per well cell density determined by nuclei count stained by Hoechst 3342 (Life technologies) in the fluorescence microscopy described below.

[1] = Conc. 109 μM (baseline comparator)
[2] = Conc. 153 μM (baseline comparator)

N=C(N)NCCC[C@H](N)C(=O)O [Arginine, L-Arginine]
Fold Change IL-6 Secretion Normalized Per Cell (IL-6; donor 1, Conc. 109 μM (plasma background, reference)): 1.0000
Fold Change IL-6 Secretion Normalized Per Cell (IL-6; donor 1, Conc. 1088 μM): 0.9828
Fold Change IL-6 Secretion Normalized Per Cell (IL-6; donor 1, Conc. 2720 μM): 1.0231
Fold Change IL-6 Secretion Normalized Per Cell (IL-6; donor 1, Conc. 5440 μM): 0.7776
Fold Change IL-6 Secretion Normalized Per Cell (IL-6; donor 2, Conc. 109 μM (plasma background, reference)): 1.0000
Fold Change IL-6 Secretion Normalized Per Cell (IL-6; donor 2, Conc. 1088 μM): 0.9924
Fold Change IL-6 Secretion Normalized Per Cell (IL-6; donor 2, Conc. 2720 μM): 0.9401
Fold Change IL-6 Secretion Normalized Per Cell (IL-6; donor 2, Conc. 5440 μM): 0.8895
IL-6 cytokine secretion, per-cell normalized, fold change from plasma amino acid background (IL-6): no significant effect
MCP1 expression relative to Control- Donor 1, Mean (MCP1/CCL2; [1]): 2.37E−15
MCP1 expression relative to Control- Donor 2, Mean (MCP1/CCL2; [1]): −4.7E−15
MCP1 expression relative to Control- Donor 1, Mean (MCP1/CCL2; Conc. 1088 μM): 5.114
MCP1 expression relative to Control- Donor 2, Mean (MCP1/CCL2; Conc. 1088 μM): 24.95
MCP1 expression relative to Control- Donor 1, Mean (MCP1/CCL2; Conc. 2720 μM): 6.527
MCP1 expression relative to Control- Donor 2, Mean (MCP1/CCL2; Conc. 2720 μM): 24.06
MCP1 expression relative to Control- Donor 1, Mean (MCP1/CCL2; Conc. 5440 μM): 10.9386
MCP1 expression relative to Control- Donor 2, Mean (MCP1/CCL2; Conc. 5440 μM): 8.494
MCP1/CCL2 secretion (baseline subtracted) (MCP1/CCL2): increased

CC(C)C[C@H](N)C(=O)O [Leucine, L-Leucine]
Fold Change IL-6 Secretion Normalized Per Cell (IL-6; donor 1, Conc. 153 μM (plasma background, reference)): 1.0000
Fold Change IL-6 Secretion Normalized Per Cell (IL-6; donor 2, Conc. 153 μM (plasma background, reference)): 1.0000
IL-6 cytokine secretion, per-cell normalized, fold change from plasma amino acid background (IL-6): no significant effect
MCP1 expression relative to Control- Donor 1, Mean (MCP1/CCL2; [2]): 5.92E−16
MCP1 expression relative to Control- Donor 2, Mean (MCP1/CCL2; [2]): −4.7E−15
MCP1 expression relative to Control- Donor 1, Mean (MCP1/CCL2; Conc. 3054 μM): 3.34
MCP1 expression relative to Control- Donor 2, Mean (MCP1/CCL2; Conc. 3054 μM): 16.11
MCP1 expression relative to Control- Donor 1, Mean (MCP1/CCL2; Conc. 7635 μM): 1.896
MCP1 expression relative to Control- Donor 2, Mean (MCP1/CCL2; Conc. 7635 μM): −2.988
MCP1 expression relative to Control- Donor 1, Mean (MCP1/CCL2; Conc. 15270 μM): −1.368
MCP1 expression relative to Control- Donor 2, Mean (MCP1/CCL2; Conc. 15270 μM): −26.6436
MCP1/CCL2 secretion (baseline subtracted) (MCP1/CCL2): did not have an effect
